According to US20150223463A1, “SPIROCYCLIC ISOXAZOLINE DERIVATIVES FOR TREATMENT OF SEA LICE” (Zoetis LLC, priority 2012, published 2015):

System: Lepeophtheirus salmonis (sea lice)
Assay: Sea lice bioassay, 24 hours exposure to test compound
Format: in vivo
Conditions: predominantly pre-adult and adult stage, generally chemical resistant strain

Substance: Emamectin
- Adult Females (EC50) (adult female sea lice): 65 ppb
- Adult Males (EC50) (adult male sea lice): 202 ppb
